# Data reported in US9974305B2, “Fungicidal or bactericidal composition, and method for controlling diseases” (NISSAN CHEMICAL INDUSTRIES, LTD., priority 2014, dated 2018).
# Read-outs that look alike come from different tables or passages of the source.
# Experiments:
# [1] = test system: cucumber gray mold fungus (Botrytis cinerea); experiment: Preventive test against gray mold on cucumber cotyledon leaves, spray treatment, preventive value and Colby expected value (Test Examples 1-4); format: in vivo; conditions: single compound; for pest or weed control at 3 ppm / pest or weed control at 100 ppm / pest or weed control at 10 ppm / pest or weed control at 25 ppm / pest or weed control at 8 ppm / pest or weed control at 5 ppm / pest or weed control at 50 ppm / pest or weed control at 35 ppm: Botrytis cinerea, 72 h; for pest or weed control at 3 ppm: 3 ppm spray; for pest or weed control at 25 ppm: 25 ppm spray; for pest or weed control at 8 ppm: 8 ppm spray; for pest or weed control at 35 ppm: 35 ppm spray
# Procedure: Using the following compound listed in Table 2 (the active ingredient A) and the compound listed in Table 5 through Table 15 (active ingredient B), an agent was prepared in accordance with the above Formulation Example. This agent was diluted with water to a predetermined concentration to obtain a test solution. Then, cucumber (variety: Sagami-hanjiro) was planted in a plastic pot of 90 cm^3, and in the cotyledon stage, 5 ml of the obtained test solution, was sprayed by a spray gun and air-dried. Thereafter, the treated leaf was cut off and placed in a plastic container which filled approximately 0.5 cm in depth water. A suspension of conidia of cucumber gray mold fungus (Botrytis cinerea) and a dissolved PDA culture medium were mixed at a ratio of 1:1 (mass ratio), and the mixture was dropped to inoculate the treated leaf with 30 μl. After the inoculation, the plastic container was sealed and left at 20° C. for 3 days, the ratio of the formed lesion occupying the inoculated leaf was measured, and the preventive value was calculated in accordance with the following calculation formula. Preventive value=[1−(treated plot lesion area ratio/untreated plot lesion area ratio)]×100
# Further, from the preventive value at each agent concentration, synergy was calculated by using the Colby method (Colby S. R. 1976, Weeds 15, 20-22). The calculation method is as follows. E=X+Y−XY/100
# X: preventive value of A agent at x concentration
# Y: preventive value of B agent at y concentration
# E: theoretical value expected by treatment of the mixture of A agent and B agent.
# The obtained result is analyzed to be synergy if the observed value is larger than the expected value, to be antagonism if the expected value is larger than the observed value, and to be an additive effect if the observed value and the expected value are the same.
# Using the following compound listed in Table 2 (active ingredient A) and the following compound listed in Table 5 through Table 15 (active ingredient B) as active ingredients, a preventive test against gray mold was conducted in accordance with the method described in Test Example 1.
# Using the following compound listed in Table 2 (active ingredient A) and the following compound listed in Table 5 or Table 6 (active ingredient B) as active ingredients, a preventive test against gray mold was conducted in accordance with the method described in Test Example 1.
# Using the following compound listed in Table 2 (active ingredient A) and the following compound listed in Table 6 through Table 16 (active ingredient B) as active ingredients, a preventive test against gray mold was conducted in accordance with the method described in Test Example 1.
# [2] = test system: wheat glume blotch (Leptosphaeria nodorum); experiment: Efficacy test on wheat glume blotch, spray treatment and prevention test (Test Example 8); format: in vivo; conditions: spray, lesion area ratio
# Procedure: An agent comprising the following compound listed in Table 2 (active ingredient A) and the following compound listed in Table 6, Table 11 or Table 15 (active ingredient B) as active ingredients, was prepared in accordance with the above Formulation Example. This agent was diluted with water to a predetermined concentration to obtain a test solution. Then, to seedlings of wheat (variety: Haruyutaka) at the 1-leaf stage, seeded in a pot with a diameter of 7 cm, with 5 seeds per pot, and grown for 7 days, the test solution was applied by a spray gun in an amount of 5 ml per pot, for treatment. One day after the treatment, a spore suspension (1×100,000 cfu/ml) of wheat glume blotch (Leptosphaeria nodorum) was spray-inoculated, and the pot was placed in a moist chamber set in temperature of 20° C. and humidity more than 95% RH for 48 hours. After placing the pot in a glass greenhouse for 7 days, the ratio of the formed lesion area occupying the inoculated leaves was measured, and the preventive value was calculated in accordance with the following formula. Preventive value=[1−(treated plot lesion area ratio/untreated plot lesion area ratio)]×100
# Further, from the preventive value for each agent concentration, synergy was calculated by using the Colby method (Colby S. R. 1976, Weeds 15, 20-22).
# [3] = Test Example 1, read-out: Preventive value
# [4] = Test Example 2, read-out: Preventive value
# [5] = Test Example 4, 100 ppm spray, read-out: Preventive value
# [6] = Test Example 4, 10 ppm spray, read-out: Preventive value
# [7] = Test Example 4, 50 ppm spray, read-out: Preventive value
compound,measurement,setting,value
"CCCCNC(=O)n1c(NC(=O)OC)nc2ccccc21 [B01, benomyl]",pest or weed control at 3 ppm,[1]; [3],50%
same,pest or weed control at 3 ppm,[1]; [4],45%
"CC(Cc1ccc(C(C)(C)C)cc1)CN1CCCCC1 (stereo not drawn) [H44, fenpropidin]",pest or weed control at 100 ppm,[1]; [5],35%
mancozeb [L16],Preventive value,"[1]; Test Example 4, 100 ppm spray",45
"O=c1c2cc(F)ccc2nc(-n2cncn2)n1-c1ccc(Cl)cc1Cl [H15, fluquinconazole]",pest or weed control at 10 ppm,[1]; [6],55%
"CC12CC1(C)C(=O)N(c1cc(Cl)cc(Cl)c1)C2=O (stereo not drawn) [F02, procymidone]",pest or weed control at 10 ppm,[1]; [6],55%
"CC1(C(=O)Nc2ccc(O)c(Cl)c2Cl)CCCCC1 [H49, fenhexamid]",pest or weed control at 25 ppm,[1]; Test Example 1,30%
same,pest or weed control at 25 ppm,[1]; Test Example 2,25%
"N#Cc1c[nH]cc1-c1cccc2c1OC(F)(F)O2 [Compound No. E04, fludioxonil]",pest or weed control at 3 ppm,"[1]; read-out: Preventive value, Test Example 1",60%
same,pest or weed control at 3 ppm,"[1]; read-out: Preventive value, Test Example 2",58%
"CCCCC(C#N)(Cn1cncn1)c1ccc(Cl)cc1 (stereo not drawn) [H24, myclobutanil, reference compound]",pest or weed control at 10 ppm,[1]; [6],60%
same,pest or weed control at 100 ppm,"[2]; Parastagonospora nodorum, single compound 100 ppm, read-out: Preventive value",70%
"CC(C)Oc1cccc(NC(=O)c2ccccc2C(F)(F)F)c1 [C07, flutolanil]",pest or weed control at 100 ppm,"[1]; Test Example 3, 100 ppm spray, read-out: Preventive value",50%
"CON=C(C(=O)OC)c1ccccc1CON=C(C)c1cccc(C(F)(F)F)c1 [C39, trifloxystrobin, reference compound]",pest or weed control at 10 ppm,[1]; [6],40%
same,pest or weed control at 50 ppm,"[2]; Parastagonospora nodorum, single compound 50 ppm, read-out: Preventive value",70%
"COc1cc(C)c(C(=O)c2c(OC)ccc(Br)c2C)c(OC)c1OC [M09, metrafenone]",pest or weed control at 100 ppm,[1]; [5],5%
"CNC(=O)/C(=N/OC)c1ccccc1CO/N=C(C)/C(=N/OC)C(/C)=N/OC [C31, orysastrobin]",Preventive value,"[1]; Test Example 4, 50 ppm spray",40
"Cn1cc(C(=O)Nc2cccc3c2[C@@H]2CC[C@H]3C2=C(Cl)Cl)c(C(F)F)n1 (racemic) [C01, benzovindiflupyr]",Preventive value,"[1]; Test Example 3, 5 ppm spray",60
"CO/N=C(/C(=O)OC)c1ccccc1COc1ccccc1C [C28, kresoxim-methyl]",pest or weed control at 10 ppm,"[1]; Test Example 1, 10 ppm spray, read-out: Preventive value",45%
same,pest or weed control at 10 ppm,"[1]; Test Example 2, 10 ppm spray, read-out: Preventive value",56%
same,pest or weed control at 5 ppm,"[2]; Parastagonospora nodorum, single compound 5 ppm, read-out: Preventive value",45%
"Cn1cc(C(=O)Nc2ccc(F)cc2-c2ccc(Cl)c(Cl)c2)c(C(F)F)n1 [C02, bixafen]",Preventive value,"[1]; Test Example 3, 50 ppm spray",70
"CO/C=C(/C(=O)OC)c1ccccc1COc1cccc(C(F)(F)F)n1 [C32, picoxystrobin, reference compound]",Preventive value,"[1]; Test Example 4, 10 ppm spray",30
same,Preventive value,[2]; single compound 1 ppm,50
"CNC(=O)C(OC)c1ccccc1COc1cc(C)ccc1C (stereo not drawn) [C29, mandestrobin, reference compound]",Preventive value,"[1]; Test Example 4, 10 ppm spray",45
same,Preventive value,[2]; single compound 10 ppm,50
"Fc1ccc([C@]2(Cn3cncn3)O[C@H]2c2ccccc2Cl)cc1 (racemic) [Compound No. H10, epoxiconazole]",Preventive value,"[1]; Test Example 1, 10 ppm spray",60
same,Preventive value,"[1]; Test Example 2, 10 ppm spray",50
same,Preventive value,[2]; single compound 1 ppm,50
"CC#Cc1cc(C)nc(Nc2ccccc2)n1 [D2, mepanipyrim]",pest or weed control at 8 ppm,[1]; Test Example 1,55%
same,pest or weed control at 8 ppm,[1]; Test Example 2,56%
"O=C(NCCc1ncc(C(F)(F)F)cc1Cl)c1ccccc1C(F)(F)F [C06, fluopyram]",pest or weed control at 5 ppm,"[1]; Test Example 3, 5 ppm spray",63%
"CC(C1CC1)C(O)(Cn1cncn1)c1ccc(Cl)cc1 (stereo not drawn) [H05, cyproconazole]",pest or weed control at 10 ppm,[1]; [6],45%
"Cn1cc(C(=O)Nc2ccccc2-c2cc(F)c(F)c(F)c2)c(C(F)F)n1 [C08, fluxapyroxad]",Preventive value,"[1]; Test Example 3, 1 ppm spray",65
"Cc1nn(C)c(F)c1C(=O)Nc1ccccc1C(C)CC(C)C (stereo not drawn) [C14, penflufen]",Preventive value,"[1]; Test Example 3, 100 ppm spray",65
"C[Si](Cn1cncn1)(c1ccc(F)cc1)c1ccc(F)cc1 [H16, flusilazole]",pest or weed control at 10 ppm,[1]; [6],50%
"Cn1cc(C(=O)Nc2ccccc2C2CC2C2CC2)c(C(F)F)n1 (stereo not drawn) [C16, sedaxane]",Preventive value,"[1]; Test Example 3, 10 ppm spray",50
"Cc1cc(C2CC2)nc(Nc2ccccc2)n1 [D1, cyprodinil]",pest or weed control at 50 ppm,[1]; [7],50%
"OC(c1ccc(Cl)cc1)(c1cncnc1)c1ccccc1Cl (stereo not drawn) [H12, fenarimol]",pest or weed control at 10 ppm,[1]; [6],55%
"CC(Cc1ccc(C(C)(C)C)cc1)CN1C[C@@H](C)O[C@@H](C)C1 (stereo partly drawn) [H45, fenpropimorph]",pest or weed control at 100 ppm,[1]; [5],10%
"CC1COC(Cn2cncn2)(c2ccc(Oc3ccc(Cl)cc3)cc2Cl)O1 (stereo not drawn) [H07, difenoconazole]",pest or weed control at 10 ppm,[1]; [6],50%
"Cc1nn(C)c(Cl)c1C(=O)Nc1cccc2c1C(C)OC2(C)C (stereo not drawn) [C09, furametpyr]",Preventive value,"[1]; Test Example 3, 100 ppm spray",55
"CC(C)NC(=O)N1CC(=O)N(c2cc(Cl)cc(Cl)c2)C1=O [Compound No. F01, iprodione]",pest or weed control at 35 ppm,[1]; Test Example 1,50%
same,pest or weed control at 35 ppm,[1]; Test Example 2,48%
"CCCC(Cn1cncn1)c1ccc(Cl)cc1Cl (stereo not drawn) [H28, penconazole]",pest or weed control at 10 ppm,[1]; [6],45%
"Cc1cc(OC(C)C)ccc1C(=O)C(C)(C)NC(=O)c1sccc1C [C10, isofetamid]",Preventive value,"[1]; Test Example 3, 5 ppm spray",45
"COc1cc(Cl)c(OC)cc1Cl [G06, chloroneb]",pest or weed control at 100 ppm,"[1]; read-out: Preventive value, Test Example 4, 100 ppm spray",35%
"CC(C)CC(C)c1sccc1NC(=O)c1cn(C)nc1C(F)(F)F (stereo not drawn) [C15, penthiopyrad]",pest or weed control at 5 ppm,"[1]; Test Example 3, 5 ppm spray",60%
"CCOc1ccc(NC(=O)OC(C)C)cc1OCC [B06, diethofencarb]",pest or weed control at 50 ppm,"[1]; read-out: Preventive value, Test Example 3, 50 ppm spray",45%
"FC(F)C(F)(F)OCC(Cn1cncn1)c1ccc(Cl)cc1Cl (stereo not drawn) [H36, tetraconazole]",pest or weed control at 10 ppm,[1]; [6],55%
"COC(=O)NC(=S)Nc1ccccc1NC(=S)NC(=O)OC [B05, thiophanate-methyl]",pest or weed control at 10 ppm,"[1]; Test Example 3, 10 ppm spray, read-out: Preventive value",60%
"Fc1ccc(Oc2ccnc3cc(Cl)cc(Cl)c23)cc1 [E02, quinoxyfen]",pest or weed control at 100 ppm,[1]; [5],5%
"O=C(Cc1ccccc1)N/C(=N\OCC1CC1)c1c(C(F)(F)F)ccc(F)c1F [M01, cyflufenamid]",pest or weed control at 100 ppm,[1]; [5],15%
"O=[N+]([O-])c1cc(C(F)(F)F)c(Cl)c([N+](=O)[O-])c1Nc1ncc(C(F)(F)F)cc1Cl [C43, fluazinam]",pest or weed control at 50 ppm,[1]; [7],45%
"C[C@@]1(c2ccc(Oc3ccccc3)cc2)OC(=O)N(Nc2ccccc2)C1=O (racemic) [C23, famoxadone]",pest or weed control at 100 ppm,[1]; [5],35%
"OC(Cn1cncn1)(c1ccc(F)cc1)c1ccccc1F (stereo not drawn) [H17, flutriafol]",pest or weed control at 10 ppm,[1]; [6],45%
"O=C(Nc1ccccc1-c1ccc(Cl)cc1)c1cccnc1Cl [C03, boscalid]",pest or weed control at 3 ppm,[1]; [3],60%
same,pest or weed control at 3 ppm,[1]; [4],58%
"Cc1ccccc1C(=O)Nc1cccc(OC(C)C)c1 [C12, mepronil]",pest or weed control at 10 ppm,"[1]; read-out: Preventive value, Test Example 3, 10 ppm spray",60%
"O=C1c2ccccc2C(=O)N1SC(Cl)(Cl)Cl [L24, folpet]",pest or weed control at 100 ppm,[1]; [5],45%
